Reference: publication PMC11031295 (ChemMedChem, 2024)
“Also recorded” adds a separate entry of the source.

What was measured:
[1] = biological target: T1, 15N-labeled human ERCC1 fragment containing residues 96-214 (Homo sapiens, UniProt P07992); experiment: Backbone chemical shift perturbation mapping by NMR; format: binding; settings: 0.25 mM ERCC1, titration with compound 1, pH 7.5, 28 °C
T1 sequence (P07992 96-214): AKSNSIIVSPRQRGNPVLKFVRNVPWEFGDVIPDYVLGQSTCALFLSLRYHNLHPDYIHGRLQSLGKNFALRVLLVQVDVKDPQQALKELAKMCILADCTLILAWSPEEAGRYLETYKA

[2] = biological target: T2, ERCC1/XPA protein-protein interaction (MBP-ERCC1 central domain / fluorescein-labeled XPA67-80 peptide) (Homo sapiens, UniProt P07992); experiment: Fluorescence polarization; format: binding
T2 sequence (P07992 96-214): T1 sequence (P07992 96-214)

ERCC1 = settings: binding pocket on ERCC1; cited from earlier work

Row | Compound | binding site on ERCC1 (in words) [1] | EC50 [2] [µM] | binding affinity to ERCC1 (in words) (ERCC1)
1 | Cc1cc(C)c(C#N)c(SCC(O)c2cccc([N+](=O)[O-])c2)n1 (stereo not drawn) [Compound 1, 2-[2-hydroxy-2-(3-nitrophenyl)ethyl]sulfanyl-4,6-dimethyl-pyridine-3-carbonitrile] | binds within the same site as the truncated XPA67-80 peptide; also recorded: binds to the same site as the truncated XPA 14-mer; also recorded: binds to the same central domain of ERCC1 as truncated XPA peptides | 21 | 
2 | 14-mer peptide corresponding to residues 67-80 of XPA: truncated 14-mer peptide corresponding to residues 67-80 of XPA (KIIDTGGGFILEEE; UniProt P23025 67-80, looked up, fragment) |  |  | sub-micromolar affinity
